Data: patent publication US20240239775A1, “FXR REGULATOR, PREPARATION METHOD THEREFOR, PHARMACEUTICAL COMPOSITION THEREOF AND USE THEREOF” (QINGDAO RUIJI MEDICAL TECHNOLOGY CO., LTD., priority 2021, published 2024)

Each molecule was assayed against T1, FXR (Homo sapiens, UniProt Q96RI1) (assay: FXR antagonist screening by TR-FRET (LanthaScreen TR-FRET FXR co-activation assay kit)). Details: Table 1.2, FXR antagonistic activity; TR-FRET with CDCA; geometric means of at least two independent runs.
T1 construct: 5 μL of 20 nM FXR-LBD Complete Coregulator buffer G; purchased ThermoFisher PV4833
T1 sequence (Q96RI1 262-486 limits assumed): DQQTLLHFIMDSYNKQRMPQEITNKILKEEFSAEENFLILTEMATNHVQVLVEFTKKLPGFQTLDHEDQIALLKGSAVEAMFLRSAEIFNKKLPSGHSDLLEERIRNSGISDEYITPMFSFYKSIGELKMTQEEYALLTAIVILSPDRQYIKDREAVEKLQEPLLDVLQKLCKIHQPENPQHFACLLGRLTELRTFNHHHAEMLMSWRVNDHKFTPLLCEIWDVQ
Type: biochemical
Procedure, shortened: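 FXR-LBD (20 nM working solution) mixed with compound, CDCA (200 μM working solution) as agonist, Fluorescein-SRC2-2 and Tb-anti-GST antibody in Coregulator buffer G; 10 h at room temperature. Coactivator recruitment read by TR-FRET, triplicate wells.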
`CCOC(=O)c1oc2ccc(S(=O)(=O)N(CCc3ccccc3)c3ccccc3N3CCN(C(=O)C(CC)CC)CC3)cc2c1C` [Example M10-145, Ethyl 5-(N-(2-(4-(2-ethylbutyryl)piperazin-1-yl)phenyl)-N-phenethylsulfamoyl)3-methylbenzofuran-2-carboxylate] showed an IC50 of 50 to 100 µM.
Work on `CCOC(=O)c1oc2ccc(S(=O)(=O)N(CCc3ccccc3)c3ccccc3N3CCN(C(=O)c4ccno4)CC3)cc2c1C` [Example M10-146, Ethyl 5-(N-(2-(4-(isoxazole-5-carbonyl)piperazin-1-yl)phenyl)-N-phenethylsulfamoyl)3-methylbenzofuran-2-carboxylate] yielded an IC50 of 50 to 100 µM.
With `CCOC(=O)c1oc2ccc(S(=O)(=O)N(CCc3ccccc3)c3ccccc3N3CCC(NC(=O)c4sccc4Br)CC3)cc2c1C` [Example M10-147, ethyl 5-(N-(2-(4-(3-bromothiophene-2-carboxamido)piperidin-1-yl)phenyl)-N-phenethylsulfamoyl)-3-methylbenzofuran-2-carboxylate] the IC50 was 50 to 100 µM.
Molecule `CCOC(=O)c1oc2ccc(S(=O)(=O)N(CCc3ccccc3)c3ccccc3N3CCC4(CCN(C(=O)c5sccc5Br)C4)CC3)cc2c1C` [Example M10-148] has an IC50 of 50 to 100 µM.
`CCOC(=O)c1oc2ccc(S(=O)(=O)N(CCc3ccccc3)c3ccccc3N3CC4(CCN(C(=O)c5sccc5Br)CC4)C3)cc2c1C` [Example M10-149, Ethyl 5-(N-(2-(7-(3-bromothiophene-2-carbonyl)-2,7-diazaspiro[3.5]nonan-2-yl)phenyl)-N-phenethylsulfamoyl)-3-methylbenzofuran-2-carboxylate] showed an IC50 of 50 to 100 µM.
In the case of `CCOC(=O)c1oc2ccc(S(=O)(=O)N(CCc3ccccc3)c3ccccc3N3CCC4(CC3)CN(C(=O)c3sccc3Br)C4)cc2c1C` [Example M10-150], the IC50 is reported as 50 to 100 µM.
With `CCOC(=O)c1oc2ccc(S(=O)(=O)N(CCc3ccccc3)c3ccccc3N3CC4CC(C3)N4C(=O)c3sccc3Br)cc2c1C` [Example M10-151, Ethyl 5-(N-(2-(6-(3-bromothiophene-2-carbonyl)-3,6-diazabicyclo[3.1.1]heptan-3-yl)phenyl)-N-phenethylsulfamoyl)-3-methylbenzofuran-2-carboxylate] the IC50 was 50 to 100 µM.
`CCOC(=O)c1oc2ccc(S(=O)(=O)N(CCc3ccccc3)c3ccccc3N3CCN(C(=O)c4sccc4Br)C[C@@H]3C)cc2c1C` [Example M10-152, (S)-ethyl-5-(N-(2-(4-(3-bromothiophene-2-carbonyl)-2-methylpiperazin-1-yl)phenyl)-N-phenethylsulfamoyl)-3-methylbenzofuran-2-carboxylate] was tested, and the IC50 was 50 to 100 µM.
`CCOC(=O)c1oc2ccc(S(=O)(=O)N(CCc3ccccc3)c3ccccc3N3CCN(C(=O)c4sccc4Br)C[C@H]3C)cc2c1C` [Example M10-153, (R)-ethyl-5-(N-(2-(4-(3-bromothiophene-2-carbonyl)-2-methylpiperazin-1-yl)phenyl)-N-phenethylsulfamoyl)-3-methylbenzofuran-2-carboxylate] showed an IC50 of 50 to 100 µM.
In the case of `CCOC(=O)c1oc2ccc(S(=O)(=O)N(CCc3ccccc3)c3ccccc3N3CCCN(C(=O)c4sccc4Br)CC3)cc2c1C` [Example M10-154, Ethyl 5-(N-(2-(4-(3-bromothiophene-2-formyl)-1,4-diazepin-1-yl)phenyl)-N-phenethylsulfamoyl)-3-methylbenzofuran-2-carboxylate], the IC50 is reported as 50 to 100 µM.
`CCOC(=O)c1oc2ccc(S(=O)(=O)N(CCc3ccccc3)c3ccccc3N3C4CCC3CN(C(=O)c3sccc3Br)C4)cc2c1C` [Example M10-155, Ethyl 5-(N-(2-(3-(3-bromothiophene-2-formyl)-3,8-diazepine[3.2.1]cyclooctan-8-yl)phenyl)-N-phenethylsulfamoyl)3-methylbenzofuran-2-carboxylate] gave an IC50 of 50 to 100 µM.
`CCOC(=O)c1oc2ccc(S(=O)(=O)N(CCc3ccccc3)c3ccccc3N3CCN(C(=O)c4sccc4Br)C(C)C3)cc2c1C` (stereo not drawn) [Example M10-156, Ethyl 5-(N-(2-(4-(3-bromothiophene-2-formyl)-3-methylpiperazin-1-yl)phenyl)-N-phenethylsulfamoyl)3-methylbenzofuran-2-carboxylate] showed an IC50 of 50 to 100 µM.
`CCOC(=O)c1oc2ccc(S(=O)(=O)N(CCc3ccccc3)c3ccccc3N3CC4CC3CN4C(=O)c3sccc3Br)cc2c1C` (stereo not drawn) [Example M10-157, Ethyl 5-(N-(2-(5-(3-bromothiophene-2-formyl)-2,5-diazabicyclo[2.2.1]hept-2-yl)phenyl)-N-phenethylsulfamoyl)3-methylbenzofuran-2-carboxylate] showed an IC50 of 50 to 100 µM.
Molecule `CCOC(=O)c1sc2ccc(S(=O)(=O)N(CCc3ccccc3)c3ccccc3N3CCN(C(=O)c4sccc4Br)CC3)cc2c1C` [Example M10-158, ethyl 5-(N-(2-(4-(3-bromothiophene-2-carbonyl)piperazin-1-yl)phenyl)-N-phenethylsulfamoyl)-3-toluothiophene-2-carboxylate] has an IC50 of 50 to 100 µM.
In the case of `CCOC(=O)c1cc2cc(S(=O)(=O)N(CCc3ccccc3)c3ccccc3N3CCN(C(=O)c4sccc4Br)CC3)ccc2s1` [Example M10-159, Ethyl 5-(N-(2-(4-(3-bromothiophene-2-carbonyl)piperazin-1-yl)phenyl)-N-phenethylsulfamoyl)benzo[b]thiophene-2-carboxylate], the IC50 is reported as 50 to 100 µM.
In the case of `CCOC(=O)c1cc2ccc(S(=O)(=O)N(CCc3ccccc3)c3ccccc3N3CCN(C(=O)c4sccc4Br)CC3)cc2s1` [Example M10-160, Ethyl 6-(N-(2-(4-(3-bromothiophene-2-carbonyl)piperazin-1-yl)phenyl)-N-phenethylsulfamoyl)benzo[b]thiophene-2-carboxylate], the IC50 is reported as 50 to 100 µM.
`CCOC(=O)c1[nH]c2ccc(S(=O)(=O)N(CCc3ccccc3)c3ccccc3N3CCN(C(=O)c4sccc4Br)CC3)cc2c1Cl` [Example M10-161, Ethyl 5-(N-(2-(4-(3-bromothiophene-2-carbonyl)piperazin-1-yl)phenyl)-N-phenethylsulfamoyl)-3-chloro-1H-indole-2-carboxylate] showed an IC50 of 50 to 100 µM.
`CCOC(=O)c1cc2cc(S(=O)(=O)N(CCc3ccccc3)c3ccccc3N3CCN(C(=O)c4sccc4Br)CC3)ccc2o1` [Example M10-162, Ethyl 5-(N-(2-(4-(3-bromothiophene-2-formyl)piperazin-1-yl)phenyl)-N-phenethylsulfamoyl)benzofuran-2-carboxylate] gave an IC50 of 50 to 100 µM.
For `CCOC(=O)c1oc2cc(S(=O)(=O)N(CCc3ccccc3)c3ccccc3N3CCN(C(=O)c4sccc4Br)CC3)ccc2c1C` [Example M10-163, Ethyl 6-(N-(2-(4-(3-bromothiophene-2-formyl)piperazin-1-yl)phenyl)-N-phenethylsulfamoyl)-3-methylbenzofuran-2-carboxylate], the IC50 was 50 to 100 µM.
For `CCOC(=O)c1cc2ccc(S(=O)(=O)N(CCc3ccccc3)c3ccccc3N3CCN(C(=O)c4sccc4Br)CC3)cc2o1` [Example M10-164, Ethyl 6-(N-(2-(4-(3-bromothiophene-2-formyl)piperazin-1-yl)phenyl)-N-phenethylsulfamoyl)benzofuran-2-carboxylate], the IC50 was 50 to 100 µM.
Molecule `CCOC(=O)c1sc2ccc(S(=O)(=O)N(CCc3ccc(Cl)cc3)c3ccccc3N3CCN(C(=O)c4sccc4Br)CC3)cc2c1C` [Example M10-165, ethyl 5-(N-(2-(4-(3-bromothiophene-2-carbonyl)piperazin-1-yl)phenyl)-N-(4-chlorophenylethyl)sulfamoyl)-3-methylbenzothiophene-2-carboxylate] has an IC50 of 50 to 100 µM.
Molecule `CCOC(=O)c1sc2ccc(S(=O)(=O)N(CCc3ccc(C)cc3)c3ccccc3N3CCN(C(=O)c4sccc4Br)CC3)cc2c1C` [Example M10-166, Ethyl 5-(N-(2-(4-(3-bromothiophene-2-carbonyl)piperazin-1-yl)phenyl)-N-(4-methylphenylethyl)sulfamoyl)-3-methylbenzothiophene-2-carboxylate] has an IC50 of 50 to 100 µM.
For `CCOC(=O)c1sc2ccc(S(=O)(=O)N(CCc3ccc(C(=O)OC)cc3)c3ccccc3N3CCN(C(=O)c4sccc4Br)CC3)cc2c1C` [Example M10-167, ethyl 5-(N-(2-(4-(3-bromothiophene-2-carbonyl)piperazin-1-yl)phenyl)-N-(4-(methoxycarbonyl)phenethyl)sulfamoyl)-3-methylbenzothiophene-2-carboxylate], the IC50 was 50 to 100 µM.
`CCOC(=O)c1sc2ccc(S(=O)(=O)N(CCc3ccc(C#N)cc3)c3ccccc3N3CCN(C(=O)c4sccc4Br)CC3)cc2c1C` [Example M10-168] was tested, and the IC50 was 50 to 100 µM.
`CCOC(=O)c1sc2ccc(S(=O)(=O)N(CCc3ccc(C(F)(F)F)cc3)c3ccccc3N3CCN(C(=O)c4sccc4Br)CC3)cc2c1C` [Example M10-169, Ethyl 5-(N-(2-(4-(3-bromothiophene-2-carbonyl)piperazin-1-yl)phenyl)-N-(4-(trifluoromethyl)phenethyl)sulfamoyl)-3-methylbenzothiophene-2-carboxylate] showed an IC50 of 50 to 100 µM.
Molecule `CCOC(=O)c1sc2ccc(S(=O)(=O)N(CCc3cccc(OC)c3)c3ccccc3N3CCN(C(=O)c4sccc4Br)CC3)cc2c1C` [Example M10-170, Ethyl 5-(N-(2-(4-(3-bromothiophene-2-carbonyl)piperazin-1-yl)phenyl)-N-(3-methoxyphenethyl)sulfamoyl)-3-methylbenzothiophene-2-carboxylate] has an IC50 of 50 to 100 µM.
For `CCOC(=O)c1sc2ccc(S(=O)(=O)N(CCc3cccc(Cl)c3)c3ccccc3N3CCN(C(=O)c4sccc4Br)CC3)cc2c1C` [Example M10-171, Ethyl 5-(N-(2-(4-(3-bromothiophene-2-carbonyl)piperazin-1-yl)phenyl)-N-(3-chlorophenylethyl)sulfamoyl)-3-methylbenzothiophene-2-carboxylate], the IC50 was 50 to 100 µM.
